In paper PMC3541548 (Bioorganic & medicinal chemistry letters, 2012):
Read-outs that look alike come from different tables or passages of the source.

Legend:
in vitro = details: human, microsomes
Human sEH = biological target: T1, Human sEH (Homo sapiens, UniProt P34913); assay type: biochemical; details: for fold lower potency against sEH: compared to 2-naphthalene analog 7-38
T1 sequence (P34913 1-555): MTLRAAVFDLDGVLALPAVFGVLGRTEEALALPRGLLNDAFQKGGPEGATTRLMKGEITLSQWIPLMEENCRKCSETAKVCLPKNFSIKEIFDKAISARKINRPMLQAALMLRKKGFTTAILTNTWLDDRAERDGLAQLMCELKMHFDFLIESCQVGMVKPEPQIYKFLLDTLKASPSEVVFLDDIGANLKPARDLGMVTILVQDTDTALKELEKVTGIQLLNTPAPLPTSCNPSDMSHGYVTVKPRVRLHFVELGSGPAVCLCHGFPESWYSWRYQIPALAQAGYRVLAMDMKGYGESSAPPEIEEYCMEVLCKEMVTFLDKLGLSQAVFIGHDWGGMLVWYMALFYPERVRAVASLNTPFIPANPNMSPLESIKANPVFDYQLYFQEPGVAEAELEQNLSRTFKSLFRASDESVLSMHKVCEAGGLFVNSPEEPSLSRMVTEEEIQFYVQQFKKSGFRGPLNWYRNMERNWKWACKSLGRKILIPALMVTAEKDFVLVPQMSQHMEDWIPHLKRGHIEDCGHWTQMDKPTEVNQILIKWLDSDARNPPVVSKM

[1] = compared to phenyl compound 7-12

Q: Which CLint scaled at 1.5 h (in vitro) does the source give for `Cc1ccc(S(=O)(=O)N2CCC(C(=O)NC3CCCC3)CC2)c(C)c1` [Compound 7-3] here?
A: 90 mL/min/kg

Q: For `Cc1ccc(S(=O)(=O)N2CCC(C(=O)NC34CC5CC(CC(C5)C3)C4)CC2)c(C)c1` [Compound 7-6], which CLint scaled at 1.5 h (in vitro) is on record?
A: 90 mL/min/kg

Q: Which CLint scaled at 1.5 h (in vitro) does the source give for `Cc1ccc(S(=O)(=O)N2CCC(C(=O)Nc3ccccc3O)CC2)c(C)c1` [Compound 7-9] here?
A: 520 mL/min/kg

Q: Which CLint scaled at 1.5 h (in vitro) does the source give for `COC(=O)c1ccc(NC(=O)C2CCN(S(=O)(=O)c3ccc(C)cc3C)CC2)cc1` [Compound 7-11] here?
A: 340 mL/min/kg

Q: For `Cc1ccc(S(=O)(=O)N2CCC(C(=O)Nc3ccc(OC(F)(F)F)cc3)CC2)c(C)c1` [Compound 7-12], which “fold drop in potency against the human sEH” value (Human sEH; compared to cycloalkyl lead compound 2) is on record?
A: 15 fold

Q: Which “fold decrease in potency” value (Human sEH; [1]) does the source give for `Cc1ccc(S(=O)(=O)N2CCC(C(=O)Nc3ccc(N4CCOCC4)cc3)CC2)c(C)c1` [Compound 7-14] here?
A: 10 fold

Q: For `Cc1ccc(S(=O)(=O)N2CCC(C(=O)Nc3cccc(C(F)(F)F)c3)CC2)c(C)c1` [Compound 7-16], which “fold decrease in potency” value (Human sEH; [1]) is on record?
A: 30 fold

Q: With `Cc1ccc(S(=O)(=O)N2CCC(C(=O)Nc3ccc(Cl)c(Cl)c3)CC2)c(C)c1` [Compound 7-19] as the molecule, how does the “fold decrease in potency” value (Human sEH; [1]) read?
A: 2 fold

Q: With `Cc1ccc(S(=O)(=O)N2CCC(C(=O)Nc3cccc4cccnc34)CC2)c(C)c1` [Compound 7-20] as the molecule, how does the CLint scaled at 1.5 h (in vitro) read?
A: 120 mL/min/kg

Q: With `Cc1ccc(S(=O)(=O)N2CCC(C(=O)Nc3ccc4c(c3)OCO4)CC2)c(C)c1` [Compound 7-23] as the molecule, how does the CLint scaled at 1.5 h (in vitro) read?
A: 28 mL/min/kg

Q: What about the “fold increase in potency (lower IC50)” value (Human sEH; [1]) of the same molecule?
A: 4 fold

Q: What about the “in vitro metabolic stability in human liver microsomes (in words)” value of the same molecule?
A: intermediate metabolic profiles

Q: Which CLint scaled at 1.5 h (in vitro) does the source give for `Cc1ccc(S(=O)(=O)N2CCC(C(=O)NC3CC3)CC2)c(C)c1` [Compound 7-24] here?
A: 7 mL/min/kg

Q: And the “in vitro metabolic stability in human liver microsomes (in words)” value?
A: intermediate metabolic profiles

Q: For `Cc1ccc(S(=O)(=O)N2CCC(C(=O)Nc3ccc([N+](=O)[O-])cc3)CC2)c(C)c1` [Compound 7-35], which “fold increase in potency (lower IC50)” value (Human sEH; [1]) is on record?
A: 2 fold

Q: What does the source list for `Cc1ccc(S(=O)(=O)N2CCC(C(=O)Nc3ccc(C(C)C)cc3)CC2)c(C)c1` [Compound 7-37]?
A: CLint scaled at 1.5 h (in vitro): 50 mL/min/kg; fold increase in potency (lower IC50) (Human sEH): 3 fold

Q: Which CLint scaled at 1.5 h (in vitro) does the source give for `Cc1ccc(S(=O)(=O)N2CCC(C(=O)Nc3ccc(S(=O)(=O)C(F)(F)F)cc3)CC2)c(C)c1` [Compound 7-38] here?
A: 35 mL/min/kg

Q: For `Cc1ccc(S(=O)(=O)N2CCC(C(=O)Nc3ccc(F)cc3)CC2)c(C)c1` [Compound 7-39], which “fold lower potency against sEH” value (Human sEH) is on record?
A: 5 fold

Q: For `Cc1ccc(S(=O)(=O)N2CCC(C(=O)Nc3ccc(Br)cc3)CC2)c(C)c1` [Compound 7-40], which “fold lower potency against sEH” value (Human sEH) is on record?
A: 30 fold

Q: For `Cc1ccc(S(=O)(=O)N2CCC(C(=O)Nc3ccc(Cl)c(C(F)(F)F)c3)CC2)c(C)c1` [Compound 7-41], which “fold lower potency against sEH” value (Human sEH) is on record?
A: 50 fold

Q: Which results are given for `Cc1ccc(S(=O)(=O)N2CCC(C(=O)Nc3ccc4ccccc4c3)CC2)c(C)c1` [Compound 7-42]?
A: CLint scaled at 1.5 h (in vitro): 140 mL/min/kg; fold lower potency against sEH (Human sEH): 180 fold

Q: With `Cc1ccc(S(=O)(=O)N2CCC(C(=O)Nc3cccc4cnccc34)CC2)c(C)c1` [Compound 7-44] as the molecule, how does the CLint scaled at 1.5 h (in vitro) read?
A: 5.6 mL/min/kg

Q: And the “fold lower potency against sEH” value (Human sEH)?
A: 15 fold

Q: For `Cc1ccc(S(=O)(=O)N2CCC(C(=O)Nc3ccc4cc(C(=O)O)ccc4c3)CC2)c(C)c1` [Compound 7-45], which CLint scaled at 1.5 h (in vitro) is on record?
A: 35 mL/min/kg
